Entries after “also recorded” stand apart in the source; their conditions may differ.
Tested on: chemotherapy-induced peripheral neuropathic pain in rats
Experiment: Paclitaxel-induced peripheral neuropathic pain, paw withdrawal threshold with von Frey filaments, single administration (Example 5)
Assay type: in vivo, Male Sprague Dawley rats
Conditions: for Paw withdrawal threshold (PWT) compared to vehicle (in words): Day 14; for Paw withdrawal threshold (PWT), Day 14 Avg., Mean: i.p., 2 hours prior to test, Count 12
Experimental: Assessment of neuropathic pain using von Frey filaments was performed. Rats were administered paclitaxel (2 mg/kg) on four alternate days (days 1, 3, 5 and 7). Baseline and post treatment paw withdrawal thresholds (PWT) were evaluated using von Frey filaments (Semmes-Weinstein filaments, Stoelting, Wood Dale, Ill., USA) of varying stiffness (0.4, 0.7, 1.2, 2.0, 3.6, 5.5, 8.5, 10, 15, 26 g). Animals were placed on a perforated metallic platform and allowed to acclimate to their surroundings for a minimum of 15 minutes before each test session. Each filament was presented perpendicular to the plantar surface with sufficient force to cause slight buckling against the paw, and then held until a positive response is noted (paw sharply withdrawn). As described by Chaplan, S. R. et al. “Qualitative Assessment of Tactile Allodynia in the Rat Paw” Journal of Neuroscience Methods, 53 (1994), 55-63 (“Chaplan”), once the threshold was crossed, the 2 responses straddling the threshold are retrospectively designated as the first 2 responses. Four additional responses were measured to stimuli varied sequentially up or down based on the animal's response. The 6 responses in the immediate vicinity of the threshold were used to calculate the 50% g threshold: 50% g threshold=(10^[Xf+k*d])/10000
Xf is the final filament used (in log units). The parameter k is from the Appendix 1 in Chaplan and was determined by the pattern of the von Frey responses (e.g. OXOXOX where ‘O’ indicates no response and ‘X’ denotes a withdrawal). The parameter d is the difference between stimuli which Chaplan used a constant d=0.224. To accommodate for the use of the 10 g and 26 g filaments, the exact difference between stimuli were used.
Male Sprague Dawley rats (from Envigo, Ind., USA) were used in the study. Animals were received at approximately 250 g and housed 3 per cage upon arrival. All rats were examined, handled, and weighed prior to initiation of the study to assure adequate health and suitability. During the course of the study, 12 h/12 h light/dark cycles was maintained. The room temperature was be maintained between 20 and 23° C. with a relative humidity maintained around 50%. Chow and water was provided ad libitum for the duration of the study. All testing was performed during the animal's light cycle phase. Every effort was made to minimize suffering of animals. Rats with baseline PWT less than 12 g were not included in the study. Rats were balanced by body weight and by their pre-paclitaxel PWT values. ANOVA found no significant differences between the treatment groups.
Paclitaxel was purchased from Biolyse Pharma (Ontario, Canada) and was injected i.p. (2 mg/kg) on four alternate days (day 1, 3, 5 and 7) for a total of 4 injections at a dose volume of 1 mL/kg.
Rats were subsequently balanced and assigned to treatment groups based on post-paclitaxel PWT values. On test day, PWT was assessed two hours post vehicle or MIN-117 injections and one hour after gabapentin administration.
Gabapentin was purchased from Toronto Research Chemicals and was dissolved in saline and administered orally 60 minutes prior to test at a dose volume of 1 mL/kg. MIN-117 (1, 3 and 10 mg/kg), formulated in 0.5% (w/v) hydroxypropylmethylcellulose (HPMC, Sigma-Aldrich), was administered i.p. at a dose volume of 1 mL/kg. MIN-117 was administered 2 hours prior to test.

## Cc1nnc(-c2cc3c(OC[C@@H](O)CN4CCC(c5ccc(Cl)c(Cl)c5)CC4)cccc3o2)o1.Cl [MIN-117, (2S)-1-(4-(3,4-dichlorophenyl)piperidin-1-yl)-3-((2-(5-methyl-1,3,4-oxadiazol-2-yl)benzofuran-4-yl)oxy)propan-2-ol hydrochloride]
1 mg/kg i.p. 2 hours prior to test
  Paw withdrawal threshold (PWT) compared to vehicle (in words): did not show a significant increase in PWT
3 mg/kg i.p. 2 hours prior to test, hydrochloride, 3 mg/kg
  Paw withdrawal threshold (PWT) compared to vehicle (in words): significant increase in PWT; also recorded: significantly reduced neuropathic pain
10 mg/kg i.p. 2 hours prior to test, hydrochloride, 10 mg/kg
  Paw withdrawal threshold (PWT) compared to vehicle (in words): significant increase in PWT; also recorded: significantly reduced neuropathic pain
Paclitaxel + Gabapentin (100 mg/kg), Paclitaxel + MIN-117 (1 mg/kg)
  Mean Diff. of Day 14 Avg. PWT, Fisher's PLSD: 14.200
Paclitaxel + Gabapentin (100 mg/kg), Paclitaxel + MIN-117 (3 mg/kg)
  Mean Diff. of Day 14 Avg. PWT, Fisher's PLSD: 12.775
Paclitaxel + Gabapentin (100 mg/kg), Paclitaxel + MIN-117 (10 mg/kg)
  Mean Diff. of Day 14 Avg. PWT, Fisher's PLSD: 11.802
Paclitaxel + MIN-117 (1 mg/kg), Paclitaxel + MIN-117 (3 mg/kg)
  Mean Diff. of Day 14 Avg. PWT, Fisher's PLSD: −1.425
Paclitaxel + MIN-117 (1 mg/kg), Paclitaxel + MIN-117 (10 mg/kg)
  Mean Diff. of Day 14 Avg. PWT, Fisher's PLSD: −2.399
Paclitaxel + MIN-117 (1 mg/kg)
  Paw withdrawal threshold (PWT), Day 14 Avg., Mean: 5.433 g
Paclitaxel + MIN-117 (3 mg/kg)
  Paw withdrawal threshold (PWT), Day 14 Avg., Mean: 6.858 g
Paclitaxel + MIN-117 (10 mg/kg)
  Paw withdrawal threshold (PWT), Day 14 Avg., Mean: 7.832 g
Paclitaxel + Vehicle, Paclitaxel + MIN-117 (1 mg/kg)
  Mean Diff. of Day 14 Avg. PWT, Fisher's PLSD: −1.558
Paclitaxel + Vehicle, Paclitaxel + MIN-117 (3 mg/kg)
  Mean Diff. of Day 14 Avg. PWT, Fisher's PLSD: −2.984
Paclitaxel + Vehicle, Paclitaxel + MIN-117 (10 mg/kg)
  Mean Diff. of Day 14 Avg. PWT, Fisher's PLSD: −3.957

Source: patent publication US11766430B2, “Methods of using a phenoxypropylamine compound to treat pain” (Minerva Neurosciences, Inc., priority 2018, dated 2023)
